Like-named read-outs stand apart in the source and are kept apart here.
Columns and labels:
IgG = assay: Affinity to IgG by surface plasmon resonance (SPR); assay type: binding
Protocol: Immobilization levels ranging from 1000-1300 resonance units (RU) are obtained. The running buffer is 10 mM HEPES, pH 7.4, 400 mM NaCl, 0.005% P20, […].

[1] = biological target: T1, ASGPR receptor on the cell surface (HepG2 cells) (Homo sapiens, UniProt P07306); assay: Ternary complex formation assay (flow cytometry, HepG2); assay type: cell-based
T1 construct: host or cells: HepG2
T1 sequence (P07306 1-291): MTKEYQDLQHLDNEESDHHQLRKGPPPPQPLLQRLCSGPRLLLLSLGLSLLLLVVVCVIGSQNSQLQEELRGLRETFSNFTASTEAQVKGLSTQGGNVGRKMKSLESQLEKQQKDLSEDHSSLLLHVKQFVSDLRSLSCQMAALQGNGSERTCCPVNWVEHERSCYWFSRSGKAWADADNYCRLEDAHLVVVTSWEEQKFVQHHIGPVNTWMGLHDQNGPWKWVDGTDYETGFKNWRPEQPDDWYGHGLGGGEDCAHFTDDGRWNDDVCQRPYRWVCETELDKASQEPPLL
T1 sequence (P07307 1-311 partner): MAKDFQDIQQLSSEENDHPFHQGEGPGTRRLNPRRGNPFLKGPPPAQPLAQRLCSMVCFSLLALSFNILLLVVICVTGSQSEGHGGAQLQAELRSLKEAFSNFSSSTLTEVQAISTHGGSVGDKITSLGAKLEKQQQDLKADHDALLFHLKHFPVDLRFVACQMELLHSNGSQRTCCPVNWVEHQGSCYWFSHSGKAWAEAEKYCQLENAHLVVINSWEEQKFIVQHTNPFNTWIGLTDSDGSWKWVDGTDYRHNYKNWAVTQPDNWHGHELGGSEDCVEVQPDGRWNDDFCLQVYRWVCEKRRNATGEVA
Outline: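 HepG2 cells (1×10^5/well) incubated 1 h at 4 °C with 100 nM AF488-labeled anti-human IgG plus serial IgG-based degrader, or 100 nM AF488 rabbit anti-DNP plus serial DNP-based degrader. After washing, cell-associated AF488 MFI read by flow cytometry; peak MFI marks optimal degrader concentration for ternary complex.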

HepG2 cells = assay: Cellular uptake assay of AF488-labeled antibody (HepG2); assay type: cell-based
Outline: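 HepG2 cells given 100 nM AF488-labeled human IgG or DNP antibody plus serial dilutions of matching degrader (0.1% DMSO final), 6 h at 37° C. Methanol-fixed, DAPI-stained and imaged by high-content analysis. Value is the fraction of AF488-positive cells over total DAPI-counted cells.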

ASGPR = biological target: T2, ASGPR (Homo sapiens, UniProt P07306); assay: Affinity to ASGPR by surface plasmon resonance (SPR)
T2 sequence (P07306 1-291): T1 sequence (P07306 1-291)

[2] = Biacore 8K, 25° C., IgG on CM5 chip, read-out: IgG SPR Binding Kd
[3] = HepG2 cells, 100 nM AF488-labeled antibody, 37° C. for 6 hours, class symbols, read-out: Uptake Assay EC50
[4] = HepG2 cells, ternary complex formation, read-out: TCF EC50
[5] = HepG2 cells, read-out: Uptake EC50

Row | EC50 ([1]; HepG2 cells, 100 nM AF488-labeled antibody, 1 hour at 4° C., class symbols, read-out: Ternary Complex EC50) | SMILES | Kd (IgG; [2]) | EC50 [1] | EC50 (HepG2 cells; [3]) | Kd (ASGPR) | Kd (IgG; SPR, read-out: IgG KD) | EC50 [1, 4] | EC50 ([1]; Ternary Complex EC50 (nM), HepG2 cells, 100 nM AF488-labeled antibody, 1 hour at 4° C., class symbols) | EC50 (HepG2 cells; [5]) | EC50 (HepG2 cells; Homo sapiens, HepG2, 6 h, read-out: Uptake Assay EC50 (nM)) | EC50 ([1]; read-out: Ternary Complex EC50)
1 | – | CC(C)C[C@@H]1NC(=O)[C@H](Cc2c[nH]cn2)NC(=O)[C@H](Cc2c[nH]c3ccccc23)NC(=O)[C@H](C)NC(=O)[C@@H]2CSSC[C@H](NC(=O)[C@H](Cc3c[nH]c4ccccc34)NC(=O)[C@H](C(C)C)NC(=O)[C@H](CC(C)C)NC(=O)[C@H](CCC(=O)O)NC(=O)CNC1=O)C(=O)N[C@@H]([C@@H](C)O)C(=O)N1CCC[C@@H]1C(=O)N1C[C@@H](NC(=O)CCOCCOCCOCCNC(=O)CCCc3cn(CCCCCC(=O)NC(COCCC(=O)NCCOCCOCCOCCOC[C@@]45CO[C@@H](O4)[C@H](Nc4nc(Cl)ns4)[C@@H](O)[C@H]5O)COCCC(=O)NCCOCCOCCOCCOC[C@@]45CO[C@@H](O4)[C@H](Nc4nc(Cl)ns4)[C@@H](O)[C@H]5O)nn3)C[C@H]1C(=O)N[C@@H](CC(=O)O)C(=O)N2 [Compound 8] | < 100 nM | < 100 nM | < 100 nM | < 100 nM | – | – | – | – | – | –
2 | – | O=C(CCOCC(COCCC(=O)NCCOCCOCCOCCOC[C@H]1OC[C@H](Nc2nccc(C(F)(F)F)n2)[C@@H](O)[C@H]1O)NC(=O)COCCOCCOCCNc1ccc([N+](=O)[O-])cc1[N+](=O)[O-])NCCOCCOCCOCCOC[C@H]1OC[C@H](Nc2nccc(C(F)(F)F)n2)[C@@H](O)[C@H]1O [Compound 32, 3,3′-((2-(2-(2-(2-(2-((2,4-dinitrophenyl)amino)ethoxy)ethoxy)ethoxy)acetamido)propane-1,3-diyl)bis(oxy))bis(N-(1-((2R,3R,4R,5S)-3,4-dihydroxy-5-((4-(trifluoromethyl)pyrimidin-2-yl)amino)tetrahydro-2H-pyran-2-yl)-2,5,8,11-tetraoxatridecan-13-yl)propanamide)] | – | – | – | < 100 nM | < 100 nM | < 100 nM | < 100 nM | < 100 nM | < 100 nM | –
3 | – | CC(C)C[C@@H]1NC(=O)[C@H](Cc2cnc[nH]2)NC(=O)[C@H](Cc2c[nH]c3ccccc23)NC(=O)[C@H](C)NC(=O)[C@@H]2CSSC[C@H](NC(=O)[C@H](Cc3c[nH]c4ccccc34)NC(=O)[C@H](C(C)C)NC(=O)[C@H](CC(C)C)NC(=O)[C@H](CCC(=O)O)NC(=O)CNC1=O)C(=O)N[C@@H]([C@@H](C)O)C(=O)N1CCC[C@@H]1C(=O)N1C[C@@H](NC(=O)COCCOCC(=O)NC[C@H]3OC[C@H](Nc4cncc(C(F)(F)F)n4)[C@@H](O)[C@H]3O)C[C@H]1C(=O)N[C@@H](CC(=O)O)C(=O)N2 [Compound 42] | – | < 100 nM | < 100 nM | < 100 nM | < 100 nM | – | – | < 100 nM | – | < 100 nM
4 | – | CC(C)C[C@@H]1NC(=O)[C@H](Cc2cnc[nH]2)NC(=O)[C@H](Cc2c[nH]c3ccccc23)NC(=O)[C@H](C)NC(=O)[C@@H]2CSSC[C@H](NC(=O)[C@H](Cc3c[nH]c4ccccc34)NC(=O)[C@H](C(C)C)NC(=O)[C@H](CC(C)C)NC(=O)[C@H](CCC(=O)O)NC(=O)CNC1=O)C(=O)N[C@@H]([C@@H](C)O)C(=O)N1CCC[C@@H]1C(=O)N1C[C@@H](NC(=O)c3ccc(C(=O)NC[C@H]4OC[C@H](Nc5cncc(C(F)(F)F)n5)[C@@H](O)[C@H]4O)cc3)C[C@H]1C(=O)N[C@@H](CC(=O)O)C(=O)N2 [Compound 67] | – | – | – | < 100 nM | < 100 nM | > 1000 nM | – | > 1000 nM | – | –
5 | – | CC(=O)N[C@H]1[C@H](OCCOCCOCCOCCNC(=O)CCOCC(COCCC(=O)NCCOCCOCCOCCO[C@@H]2O[C@H](CO)[C@H](O)[C@H](O)[C@H]2NC(C)=O)(COCCC(=O)NCCOCCOCCOCCO[C@@H]2O[C@H](CO)[C@H](O)[C@H](O)[C@H]2NC(C)=O)NC(=O)CCCCCn2cc(CCCC(=O)NCCOCCOCCOCCOCCC(=O)N[C@H]3C[C@H]4C(=O)N[C@@H](CC(=O)O)C(=O)N[C@H]5CSSC[C@H](NC(=O)[C@H](Cc6c[nH]c7ccccc67)NC(=O)[C@H](C(C)C)NC(=O)[C@H](CC(C)C)NC(=O)[C@H](CCC(=O)O)NC(=O)CNC(=O)[C@H](CC(C)C)NC(=O)[C@H](Cc6c[nH]cn6)NC(=O)[C@H](Cc6c[nH]c7ccccc67)NC(=O)[C@H](C)NC5=O)C(=O)N[C@@H]([C@@H](C)O)C(=O)N5CCC[C@@H]5C(=O)N4C3)nn2)O[C@H](CO)[C@H](O)[C@@H]1O [Compound 85] | – | > 1000 nM | – | 500 to 1000 nM | < 100 nM | – | – | > 1000 nM | – | –
6 | – | CC(C)C[C@@H]1NC(=O)[C@H](Cc2c[nH]cn2)NC(=O)[C@H](Cc2c[nH]c3ccccc23)NC(=O)[C@H](C)NC(=O)[C@@H]2CSSC[C@H](NC(=O)[C@H](Cc3c[nH]c4ccccc34)NC(=O)[C@H](C(C)C)NC(=O)[C@H](CC(C)C)NC(=O)[C@H](CCC(=O)O)NC(=O)CNC1=O)C(=O)N[C@@H]([C@@H](C)O)C(=O)N1CCC[C@@H]1C(=O)N1C[C@@H](NC(=O)CCOCCNC(=O)CCCc3cn(CCCCCC(=O)NC(COCCC(=O)NCCOCCOCCOCCOC[C@@]45CO[C@@H](O4)[C@H](Nc4nc(Cl)ns4)[C@@H](O)[C@H]5O)COCCC(=O)NCCOCCOCCOCCOC[C@@]45CO[C@@H](O4)[C@H](Nc4nc(Cl)ns4)[C@@H](O)[C@H]5O)nn3)C[C@H]1C(=O)N[C@@H](CC(=O)O)C(=O)N2 [Compound 9] | < 100 nM | < 100 nM | < 100 nM | < 100 nM | – | – | – | – | – | –
7 | – | CC(C)C[C@@H]1NC(=O)[C@H](Cc2c[nH]cn2)NC(=O)[C@H](Cc2c[nH]c3ccccc23)NC(=O)[C@H](C)NC(=O)[C@@H]2CSSC[C@H](NC(=O)[C@H](Cc3c[nH]c4ccccc34)NC(=O)[C@H](C(C)C)NC(=O)[C@H](CC(C)C)NC(=O)[C@H](CCC(=O)O)NC(=O)CNC1=O)C(=O)N[C@@H]([C@@H](C)O)C(=O)N1CCC[C@@H]1C(=O)N1C[C@@H](NC(=O)COCCOCC(=O)NC(COCCC(=O)NCCOCCOCCOCCOC[C@H]3OC[C@H](Nc4cncc(C(F)(F)F)n4)[C@@H](O)[C@H]3O)COCCC(=O)NCCOCCOCCOCCOC[C@H]3OC[C@H](Nc4cncc(C(F)(F)F)n4)[C@@H](O)[C@H]3O)C[C@H]1C(=O)N[C@@H](CC(=O)O)C(=O)N2 [Compound 41] | < 100 nM | < 100 nM | < 100 nM | – | – | – | – | – | – | –
8 | – | CC(C)C[C@@H]1NC(=O)[C@H](Cc2cnc[nH]2)NC(=O)[C@H](Cc2c[nH]c3ccccc23)NC(=O)[C@H](C)NC(=O)[C@@H]2CSSC[C@H](NC(=O)[C@H](Cc3c[nH]c4ccccc34)NC(=O)[C@H](C(C)C)NC(=O)[C@H](CC(C)C)NC(=O)[C@H](CCC(=O)O)NC(=O)CNC1=O)C(=O)N[C@@H]([C@@H](C)O)C(=O)N1CCC[C@@H]1C(=O)N1C[C@H](NC(=O)COCCOCC(=O)NC[C@H]3OC[C@H](Nc4cncc(C(F)(F)F)n4)[C@@H](O)[C@H]3O)C[C@H]1C(=O)N[C@@H](CC(=O)O)C(=O)N2 [Compound 91] | – | – | – | – | < 100 nM | < 100 nM | – | < 100 nM | – | –
9 | < 100 nM | CC(C)C[C@@H]1NC(=O)[C@H](Cc2cnc[nH]2)NC(=O)[C@H](Cc2c[nH]c3ccccc23)NC(=O)[C@H](C)NC(=O)[C@@H]2CSSC[C@H](NC(=O)[C@H](Cc3c[nH]c4ccccc34)NC(=O)[C@H](C(C)C)NC(=O)[C@H](CC(C)C)NC(=O)[C@H](CCC(=O)O)NC(=O)CNC1=O)C(=O)N[C@@H]([C@@H](C)O)C(=O)N1CCC[C@@H]1C(=O)N1C[C@@H](NC(=O)CCCc3cn(CCCCCC(=O)NC(COCCC(=O)NCCOCCOCCOCCOC[C@H]4OC[C@H](Nc5cncc(C(F)(F)F)n5)[C@@H](O)[C@H]4O)COCCC(=O)NCCOCCOCCOCCOC[C@H]4OC[C@H](Nc5cncc(C(F)(F)F)n5)[C@@H](O)[C@H]4O)nn3)C[C@H]1C(=O)N[C@@H](CC(=O)O)C(=O)N2 [Compound 52] | < 100 nM | – | < 100 nM | – | – | – | – | – | – | –
10 | – | CC(C)C[C@@H]1NC(=O)[C@H](Cc2c[nH]cn2)NC(=O)[C@H](Cc2c[nH]c3ccccc23)NC(=O)[C@H](C)NC(=O)[C@@H](NC(=O)[C@H](CC(=O)O)NC(=O)CCOCCOCCOCCOCCNC(=O)CCCc2cn(CCCCCC(=O)NC(COCCC(=O)NCCOCCOCCOCCOC[C@@H]3CC[C@@H](Nc4nccc(C(F)(F)F)n4)CO3)COCCC(=O)NCCOCCOCCOCCOC[C@@H]3CC[C@@H](Nc4nccc(C(F)(F)F)n4)CO3)nn2)CSSC[C@@H](C(=O)N[C@H](C(N)=O)[C@@H](C)O)NC(=O)[C@H](Cc2c[nH]c3ccccc23)NC(=O)[C@H](C(C)C)NC(=O)[C@H](CC(C)C)NC(=O)[C@H](CCC(=O)O)NC(=O)CNC1=O [Compound 87] | – | – | – | > 1000 nM | – | > 1000 nM | – | > 1000 nM | – | –

Source: patent US12091402B2 (Avilar Therapeutics, Inc., priority 2021, dated 2024)
